Laboratory results from US20240132525A1, “BORON […], CO[…], METHODS AND USES THEREOF” (priority 2022, published 2024).

What was measured:
JAK1 = JAK1 (Homo sapiens (Human), UniProt P23458); test: Biochemical kinase assay (33P-ATP filter-binding), JAK1; conditions: Table 3b, comparator compounds; read-out: IC50 JAK1
Excerpt: (§1) Biochemical Kinase Assay Protocol (JAK)
(§2) Reaction Procedure: • 1. […] Detected kinase activity by filter-binding method.

JAK2 = JAK2 (Homo sapiens (Human), UniProt O60674); test: Biochemical kinase assay (33P-ATP filter-binding), JAK2; conditions: Table 3b, comparator compounds; read-out: IC50 JAK2
Excerpt: as §1, §2

PDE4B = PDE4B (Homo sapiens (Human), UniProt Q07343); test: PDE4B inhibition; type: biochemical; conditions: Table 3b, comparator compounds
IL-4/pSTAT6 = test: Cytokine function assay IL-4/pSTAT6 in PBMC; type: cell-based; conditions: Table 3b, comparator compounds; read-out: IC50 IL-4
Description: (§3) Cytokine Function Assay Protocols for IL-4/pSTAT6 and GM-CSF/pSTAT5
IL-4/pSTAT6: • PBMC from a healthy donor was plated onto a 96 w plate. Compound was added and incubated for 1 hour (at 37° C.). After 1 hour, cells were stimulated with IL-4 for 15 minutes. Cells were fixed and stained with anti-pSTAT6 antibody. After staining, cells were read on a Beckman-Coulter CytoFLEX.

GM-CSF/pSTAT5 = test: Cytokine function assay GM-CSF/pSTAT5 in lysed whole blood cells; type: cell-based; conditions: Table 3b, comparator compounds; read-out: IC50 GM-CSF
Description: as §3
GM-CSF/pSTAT5: • Whole blood from a healthy donor was lysed to remove red blood cells. Cells were plated onto a 96 well plate. Compound was added and incubated for 1 hour (at 37° C.). After 1 hour, cells were stimulated with GM-CSF for 15 minutes. Cells were fixed and stained with anti-pSTAT5 antibody. After staining, cells were read on a Beckman-Coulter CytoFLEX.

[1] = Dog LM (liver microsome) assay; type: in vitro ADME; conditions: Table 3b, comparator compounds; predicted clearance as percent of liver blood flow
Outline: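 Pooled Beagle liver microsomes (1 mg/ml protein), compound 1 μM, Tris pH 7.6 with 5 mM MgCl2, 37 °C, started with 1 mM NADPH; parent loss by LC-MS/MS over several time points.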

Sequence of PDE4B (Q07343 whole entry, species assumed): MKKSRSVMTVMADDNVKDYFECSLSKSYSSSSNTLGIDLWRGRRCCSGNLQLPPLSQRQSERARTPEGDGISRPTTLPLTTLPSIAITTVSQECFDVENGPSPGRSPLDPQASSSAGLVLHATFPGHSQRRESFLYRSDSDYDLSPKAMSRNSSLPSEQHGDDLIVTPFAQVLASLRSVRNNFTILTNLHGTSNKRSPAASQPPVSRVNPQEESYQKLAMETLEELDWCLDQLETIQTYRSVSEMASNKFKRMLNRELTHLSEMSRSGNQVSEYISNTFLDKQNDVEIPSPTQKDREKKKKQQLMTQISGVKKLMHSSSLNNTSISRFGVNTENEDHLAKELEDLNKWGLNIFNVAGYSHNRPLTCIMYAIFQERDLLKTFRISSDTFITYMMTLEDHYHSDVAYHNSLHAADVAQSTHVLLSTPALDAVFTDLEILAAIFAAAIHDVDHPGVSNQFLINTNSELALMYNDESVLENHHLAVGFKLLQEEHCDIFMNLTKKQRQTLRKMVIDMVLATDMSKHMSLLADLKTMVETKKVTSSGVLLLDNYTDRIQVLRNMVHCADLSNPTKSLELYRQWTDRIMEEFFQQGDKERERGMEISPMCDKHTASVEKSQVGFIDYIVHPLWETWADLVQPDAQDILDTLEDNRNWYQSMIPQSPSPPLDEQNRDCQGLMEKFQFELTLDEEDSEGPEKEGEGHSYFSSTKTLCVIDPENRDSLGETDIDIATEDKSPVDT
Sequence of JAK1 (P23458 whole entry, species assumed): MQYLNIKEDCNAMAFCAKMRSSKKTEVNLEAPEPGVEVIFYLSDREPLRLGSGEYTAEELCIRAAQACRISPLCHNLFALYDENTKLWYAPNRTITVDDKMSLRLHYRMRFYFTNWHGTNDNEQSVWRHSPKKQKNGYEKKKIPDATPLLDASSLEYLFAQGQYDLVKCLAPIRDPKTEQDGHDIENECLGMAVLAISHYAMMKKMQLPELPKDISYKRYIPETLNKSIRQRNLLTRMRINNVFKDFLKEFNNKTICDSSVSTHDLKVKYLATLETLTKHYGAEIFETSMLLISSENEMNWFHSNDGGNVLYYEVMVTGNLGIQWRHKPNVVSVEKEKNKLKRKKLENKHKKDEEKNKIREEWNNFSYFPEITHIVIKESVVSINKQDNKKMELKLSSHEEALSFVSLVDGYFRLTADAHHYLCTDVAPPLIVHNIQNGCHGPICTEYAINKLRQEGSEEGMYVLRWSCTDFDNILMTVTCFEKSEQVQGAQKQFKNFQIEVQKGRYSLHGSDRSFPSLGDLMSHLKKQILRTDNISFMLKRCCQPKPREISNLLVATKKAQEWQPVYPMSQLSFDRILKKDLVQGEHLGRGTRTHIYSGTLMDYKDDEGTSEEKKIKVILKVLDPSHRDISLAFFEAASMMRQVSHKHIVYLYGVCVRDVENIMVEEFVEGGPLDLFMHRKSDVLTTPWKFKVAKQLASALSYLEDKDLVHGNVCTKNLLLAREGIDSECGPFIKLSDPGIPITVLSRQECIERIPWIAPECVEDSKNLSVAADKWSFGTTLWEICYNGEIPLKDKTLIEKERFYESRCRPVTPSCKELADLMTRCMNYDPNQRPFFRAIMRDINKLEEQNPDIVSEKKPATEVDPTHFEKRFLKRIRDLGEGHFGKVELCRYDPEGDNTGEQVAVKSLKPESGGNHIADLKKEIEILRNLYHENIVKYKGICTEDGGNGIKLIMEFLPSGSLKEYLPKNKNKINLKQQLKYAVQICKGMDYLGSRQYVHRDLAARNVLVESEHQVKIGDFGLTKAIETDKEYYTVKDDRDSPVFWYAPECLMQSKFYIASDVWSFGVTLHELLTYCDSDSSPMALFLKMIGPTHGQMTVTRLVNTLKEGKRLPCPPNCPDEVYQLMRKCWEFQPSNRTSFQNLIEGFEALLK
Sequence of JAK2 (O60674 whole entry, species assumed): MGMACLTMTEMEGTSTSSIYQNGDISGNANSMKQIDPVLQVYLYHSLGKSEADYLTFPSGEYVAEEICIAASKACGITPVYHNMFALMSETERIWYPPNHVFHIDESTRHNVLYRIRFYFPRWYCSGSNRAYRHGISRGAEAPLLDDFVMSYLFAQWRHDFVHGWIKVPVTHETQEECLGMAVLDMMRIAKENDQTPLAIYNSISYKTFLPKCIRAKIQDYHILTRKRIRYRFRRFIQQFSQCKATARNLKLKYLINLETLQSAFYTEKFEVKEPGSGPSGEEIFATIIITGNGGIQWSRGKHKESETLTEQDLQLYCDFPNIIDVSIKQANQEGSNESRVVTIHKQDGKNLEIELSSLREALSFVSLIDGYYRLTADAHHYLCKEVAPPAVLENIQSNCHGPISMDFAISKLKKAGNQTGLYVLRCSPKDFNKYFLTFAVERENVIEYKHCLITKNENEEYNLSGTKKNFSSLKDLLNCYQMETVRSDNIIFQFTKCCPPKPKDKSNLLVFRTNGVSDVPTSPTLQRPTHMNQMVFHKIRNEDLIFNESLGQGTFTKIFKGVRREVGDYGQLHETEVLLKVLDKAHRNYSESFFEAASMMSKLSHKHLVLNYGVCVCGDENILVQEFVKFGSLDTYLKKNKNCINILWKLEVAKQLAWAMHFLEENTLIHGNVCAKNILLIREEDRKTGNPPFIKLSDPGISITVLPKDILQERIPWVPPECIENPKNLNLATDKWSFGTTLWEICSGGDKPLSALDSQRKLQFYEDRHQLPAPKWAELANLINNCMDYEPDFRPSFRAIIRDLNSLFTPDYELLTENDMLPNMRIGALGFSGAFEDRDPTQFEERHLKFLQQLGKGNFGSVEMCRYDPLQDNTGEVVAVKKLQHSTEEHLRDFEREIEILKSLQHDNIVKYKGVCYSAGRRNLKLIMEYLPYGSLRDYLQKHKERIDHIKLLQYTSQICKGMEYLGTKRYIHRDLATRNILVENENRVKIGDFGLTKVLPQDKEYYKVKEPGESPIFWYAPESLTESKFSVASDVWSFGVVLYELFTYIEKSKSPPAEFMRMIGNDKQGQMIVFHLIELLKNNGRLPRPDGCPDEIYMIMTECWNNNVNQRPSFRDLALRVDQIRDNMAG

| Compound | IC50 (JAK1) [nM] | IC50 (JAK2) [nM] | IC50 (PDE4B) [nM] | Inhibition PDE4B @ 1 μM (PDE4B) [%] | IC50 (IL-4/pSTAT6) [nM] | IC50 (GM-CSF/pSTAT5) [nM] | Dog LM QH [1] [%] |
| --- | --- | --- | --- | --- | --- | --- | --- |
| CCC(CC)Nc1nc(Nc2ccc3c(c2)COB3O)ncc1C [Example C001] | 1.6 | 60.2 | 92.2 | 90 | 115 | 1720 | 73.8 |
| CCC(CC)Nc1nc(Nc2cc(F)c3c(c2)COB3O)ncc1C [Example C003] | 0.7 | 43.7 | 212 | – | 125 | 1160 | 41.0 |
| CCC(CC)Nc1nc(Nc2cc(C)c3c(c2)COB3O)ncc1C [Example C004] | 1.1 | 41 | – | 22 | 118 | > 10000 | 34.5 |
| CCC(CC)Nc1nc(Nc2ccc3c(c2)COB3O)ncc1Cl [Example C005] | 1.1 | 33.3 | 379 | – | 6120 | 2250 | – |
| Cc1cnc(Nc2ccc3c(c2)COB3O)nc1NC1CCCC1 [Example C006] | 6.5 | 154 | 114 | 86 | 293 | 270 | >86.6 |
| Cc1cnc(Nc2cc(Cl)c3c(c2)COB3O)nc1NC1CCCC1 [Example C007] | 0.7 | 31.8 | 113 | – | 300 | 3740 | 52.1 |
| Cc1cnc(Nc2cc(C)c3c(c2)COB3O)nc1NC1CCCC1 [Example C008] | 2.3 | 59.3 | – | 37 | 973 | > 10000 | 54.3 |
| Cc1cnc(Nc2ccc3c(c2)C(C)(C)OB3O)nc1NC1CCCC1 [Example C009] | 2.4 | 83.9 | 761 | 40 | 218 | 4220 | 83.4 |
| Cc1cnc(Nc2ccc3c(c2)COB3O)nc1NC1CCCCC1 [Example C011] | 3.2 | 32.9 | 242 | 13 | 2490 | 7700 | 83.5 |
| OB1OCc2cc(Nc3ncc(Cl)c(NC4CCCC4)n3)ccc21 [Example C014] | 3.3 | 179 | 52.7 | – | 782 | 5350 | 78.5 |
| Cc1cc(Nc2ncc(Cl)c(NC3CCCC3)n2)cc2c1B(O)OC2 [Example C016] | 2.1 | 663 | – | 30 | 688 | 927 | 54.5 |
